The experiment has as its system Bloodstream form of Trypanosoma brucei, strain Lister 427. The experiment is described as follows: Trypanosoma brucei growth inhibition assay (CellTiter-Glo, 24 h). The class given is cell-based. Conditions: Trypanosoma brucei; T. Brucei Growth Inibition Assay, class symbols; read-out: T. Brucei GI EC50. The method, boiled down: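 Growth read-out was CellTiter-Glo luminescence after 24 h at 37 °C incubation of 1500 bloodstream-form Lister 427 trypanosomes per well with compound, in supplemented IMDM containing 10% FBS and at most 0.25% DMSO.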
As to `COc1nc2ccccc2cc1-c1cnc([C@@H]2CN(Cc3ccn(C)n3)CCN2C(=O)Cn2c(C(F)(F)F)nc3ccccc32)[nH]1` [(S)-1-(2-(5-(2-methoxyquinolin-3-yl)-1H-imidazol-2-yl)-4-((1-methyl-1H-pyrazol-3-yl)methyl)piperazin-1-yl)-2-(2-(trifluoromethyl)-1H-benzo[d]imidazol-1-yl)ethan-1-one], the EC50 is less than 0.1 µM.
With `COc1nc2ccccc2cc1-c1cnc([C@@H]2CN(Cc3noc(C)n3)CCN2C(=O)Cn2c(C(F)(F)F)nc3ccccc32)[nH]1` [(S)-1-(2-(5-(2-methoxyquinolin-3-yl)-1H-imidazol-2-yl)-4-((5-methyl-1,2,4-oxadiazol-3-yl)methyl)piperazin-1-yl)-2-(2-(trifluoromethyl)-1H-benzo[d]imidazol-1-yl)ethan-1-one] the figure was less than 0.1 µM.
With `COc1nc2ccccc2cc1-c1cnc([C@@H]2CN(Cc3ncco3)CCN2C(=O)Cn2c(C(F)(F)F)nc3ccccc32)[nH]1` [(S)-1-(2-(5-(2-methoxyquinolin-3-yl)-1H-imidazol-2-yl)-4-(oxazol-2-ylmethyl)piperazin-1-yl)-2-(2-(trifluoromethyl)-1H-benzo[d]imidazol-1-yl)ethan-1-one] the figure was less than 0.1 µM; with `COc1nc2ccccc2cc1-c1cnc([C@@H]2CN(Cc3cocn3)CCN2C(=O)Cn2c(C(F)(F)F)nc3ccccc32)[nH]1` [(S)-1-(2-(5-(2-methoxyquinolin-3-yl)-1H-imidazol-2-yl)-4-(oxazol-4-ylmethyl)piperazin-1-yl)-2-(2-(trifluoromethyl)-1H-benzo[d]imidazol-1-yl)ethan-1-one], less than 0.1 µM; with `COc1nc2ccccc2cc1-c1cnc([C@@H]2CN(C3COC3)CCN2C(=O)Cn2c(C(F)(F)F)nc3ccccc32)[nH]1` [(S)-1-(2-(5-(2-methoxyquinolin-3-yl)-1H-imidazol-2-yl)-4-(oxetan-3-yl)piperazin-1-yl)-2-(2-(trifluoromethyl)-1H-benzo[d]imidazol-1-yl)ethan-1-one], less than 0.1 µM.
Take `COc1nc2ccccc2cc1-c1cnc([C@@H]2CN(CC3COC3)CCN2C(=O)Cn2c(C(F)(F)F)nc3ccccc32)[nH]1` [(S)-1-(2-(5-(2-methoxyquinolin-3-yl)-1H-imidazol-2-yl)-4-(oxetan-3-ylmethyl)piperazin-1-yl)-2-(2-(trifluoromethyl)-1H-benzo[d]imidazol-1-yl)ethan-1-one]: the EC50 is less than 0.1 µM.
With `COc1nc2ccccc2cc1-c1cnc([C@@H]2CN(Cc3cnccn3)CCN2C(=O)Cn2c(C(F)(F)F)nc3ccccc32)[nH]1` [(S)-1-(2-(5-(2-methoxyquinolin-3-yl)-1H-imidazol-2-yl)-4-(pyrazin-2-ylmethyl)piperazin-1-yl)-2-(2-(trifluoromethyl)-1H-benzo[d]imidazol-1-yl)ethan-1-one] the figure was less than 0.1 µM; with `COc1nc2ccccc2cc1-c1cnc([C@@H]2CN(Cc3ccccn3)CCN2C(=O)Cn2c(C(F)(F)F)nc3ccccc32)[nH]1` [(S)-1-(2-(5-(2-methoxyquinolin-3-yl)-1H-imidazol-2-yl)-4-(pyridin-2-ylmethyl)piperazin-1-yl)-2-(2-(trifluoromethyl)-1H-benzo[d]imidazol-1-yl)ethan-1-one], less than 0.1 µM; with `COc1nc2ccccc2cc1-c1cnc([C@@H]2CN(Cc3cccnc3)CCN2C(=O)Cn2c(C(F)(F)F)nc3ccccc32)[nH]1` [(S)-1-(2-(5-(2-methoxyquinolin-3-yl)-1H-imidazol-2-yl)-4-(pyridin-3-ylmethyl)piperazin-1-yl)-2-(2-(trifluoromethyl)-1H-benzo[d]imidazol-1-yl)ethan-1-one], less than 0.1 µM.
Take `COc1nc2ccccc2cc1-c1cnc([C@@H]2CN(Cc3cncnc3)CCN2C(=O)Cn2c(C(F)(F)F)nc3ccccc32)[nH]1` [(S)-1-(2-(5-(2-methoxyquinolin-3-yl)-1H-imidazol-2-yl)-4-(pyrimidin-5-ylmethyl)piperazin-1-yl)-2-(2-(trifluoromethyl)-1H-benzo[d]imidazol-1-yl)ethan-1-one]: the 50% effective concentration (EC50) was less than 0.1 µM.
With `COc1nc2ccccc2cc1-c1cnc([C@@H]2CN(C3CCOCC3)CCN2C(=O)Cn2c(C(F)(F)F)nc3ccccc32)[nH]1` [(S)-1-(2-(5-(2-methoxyquinolin-3-yl)-1H-imidazol-2-yl)-4-(tetrahydro-2H-pyran-4-yl)piperazin-1-yl)-2-(2-(trifluoromethyl)-1H-benzo[d]imidazol-1-yl)ethan-1-one] the figure was less than 0.1 µM; with `COc1nc2ccccc2cc1-c1cnc([C@@H]2CN(Cc3nccs3)CCN2C(=O)Cn2c(C(F)(F)F)nc3ccccc32)[nH]1` [(S)-1-(2-(5-(2-methoxyquinolin-3-yl)-1H-imidazol-2-yl)-4-(thiazol-2-ylmethyl)piperazin-1-yl)-2-(2-(trifluoromethyl)-1H-benzo[d]imidazol-1-yl)ethan-1-one], less than 0.1 µM; with `COc1nc2ccccc2cc1-c1cnc([C@@H]2CN(Cc3cscn3)CCN2C(=O)Cn2c(C(F)(F)F)nc3ccccc32)[nH]1` [(S)-1-(2-(5-(2-methoxyquinolin-3-yl)-1H-imidazol-2-yl)-4-(thiazol-4-ylmethyl)piperazin-1-yl)-2-(2-(trifluoromethyl)-1H-benzo[d]imidazol-1-yl)ethan-1-one], less than 0.1 µM.
With `COc1nc2ccccc2cc1-c1cnc([C@@H]2CN(C3CCS(=O)(=O)CC3)CCN2C(=O)Cn2c(C(F)(F)F)nc3ccccc32)[nH]1` [(S)-1-(4-(1,1-dioxidotetrahydro-2H-thiopyran-4-yl)-2-(5-(2-methoxyquinolin-3-yl)-1H-imidazol-2-yl)piperazin-1-yl)-2-(2-(trifluoromethyl)-1H-benzo[d]imidazol-1-yl)ethan-1-one] the figure was less than 0.1 µM; with `COc1ccc2nc(C(F)(F)F)n(CC(=O)N3CCN(C4CCS(=O)(=O)CC4)C[C@H]3c3ncc(-c4cc5ccccc5nc4OC)[nH]3)c2c1` [(S)-1-(4-(1,1-dioxidotetrahydro-2H-thiopyran-4-yl)-2-(5-(2-methoxyquinolin-3-yl)-1H-imidazol-2-yl)piperazin-1-yl)-2-(6-methoxy-2-(trifluoromethyl)-1H-benzo[d]imidazol-1-yl)ethan-1-one], less than 0.1 µM.
In the case of `COc1nc2ccccc2cc1-c1cnc([C@@H]2CN(C3CCN(C(C)=O)CC3)CCN2C(=O)Cn2c(C(F)(F)F)nc3ccccc32)[nH]1` [(S)-1-(4-(1-acetylpiperidin-4-yl)-2-(5-(2-methoxyquinolin-3-yl)-1H-imidazol-2-yl)piperazin-1-yl)-2-(2-(trifluoromethyl)-1H-benzo[d]imidazol-1-yl)ethan-1-one], the EC50 was less than 0.1 µM.
As for `COc1ccc2nc(C(F)(F)F)n(CC(=O)N3CCN(CCn4cccn4)C[C@H]3c3ncc(-c4cc5ccccc5nc4OC)[nH]3)c2c1` [(S)-1-(4-(2-(1H-pyrazol-1-yl)ethyl)-2-(5-(2-methoxyquinolin-3-yl)-1H-imidazol-2-yl)piperazin-1-yl)-2-(6-methoxy-2-(trifluoromethyl)-1H-benzo[d]imidazol-1-yl)ethan-1-one], the EC50 was less than 0.1 µM.
With `COc1ccc2nc(C(F)(F)F)n(CC(=O)N3CCN(CCc4cnoc4)C[C@H]3c3ncc(-c4cc5ccccc5nc4OC)[nH]3)c2c1` [(S)-1-(4-(2-(isoxazol-4-yl)ethyl)-2-(5-(2-methoxyquinolin-3-yl)-1H-imidazol-2-yl)piperazin-1-yl)-2-(6-methoxy-2-(trifluoromethyl)-1H-benzo[d]imidazol-1-yl)ethan-1-one] the figure was less than 0.1 µM; with `COc1nc2ccccc2cc1-c1cnc([C@@H]2CN(C3CCC(F)(F)CC3)CCN2C(=O)Cn2c(C(F)(F)F)nc3ccccc32)[nH]1` [(S)-1-(4-(4,4-difluorocyclohexyl)-2-(5-(2-methoxyquinolin-3-yl)-1H-imidazol-2-yl)piperazin-1-yl)-2-(2-(trifluoromethyl)-1H-benzo[d]imidazol-1-yl)ethan-1-one], less than 0.1 µM; with `COc1nc2ccccc2cc1-c1cnc([C@@H]2CN(Cc3cncc(F)c3)CCN2C(=O)Cn2c(C(F)(F)F)nc3ccccc32)[nH]1` [(S)-1-(4-((5-fluoropyridin-3-yl)methyl)-2-(5-(2-methoxyquinolin-3-yl)-1H-imidazol-2-yl)piperazin-1-yl)-2-(2-(trifluoromethyl)-1H-benzo[d]imidazol-1-yl)ethan-1-one], less than 0.1 µM.
With `COc1nc2ccccc2cc1-c1cnc([C@@H]2CN(Cc3ccon3)CCN2C(=O)Cn2c(C(F)(F)F)nc3ccccc32)[nH]1` [(S)-1-(4-(isoxazol-3-ylmethyl)-2-(5-(2-methoxyquinolin-3-yl)-1H-imidazol-2-yl)piperazin-1-yl)-2-(2-(trifluoromethyl)-1H-benzo[d]imidazol-1-yl)ethan-1-one] the figure was less than 0.1 µM; with `COc1nc2ccccc2cc1-c1cnc([C@@H]2CN(Cc3ccccc3)CCN2C(=O)Cn2c(C(F)(F)F)nc3ccccc32)[nH]1` [(S)-1-(4-benzyl-2-(5-(2-methoxyquinolin-3-yl)-1H-imidazol-2-yl)piperazin-1-yl)-2-(2-(trifluoromethyl)-1H-benzo[d]imidazol-1-yl)ethan-1-one], less than 0.1 µM; with `COc1ccc2nc(C(F)(F)F)n(CC(=O)N3CCN(CCc4csc(C)n4)C[C@H]3c3ncc(-c4cc5ccccc5nc4OC)[nH]3)c2c1` [(S)-2-(6-methoxy-2-(trifluoromethyl)-1H-benzo[d]imidazol-1-yl)-1-(2-(5-(2-methoxyquinolin-3-yl)-1H-imidazol-2-yl)-4-(2-(2-methylthiazol-4-yl)ethyl)piperazin-1-yl)ethan-1-one], less than 0.1 µM.
With `COc1ccc2nc(C(F)(F)F)n(CC(=O)N3CCN(CCc4ccccn4)C[C@H]3c3ncc(-c4cc5ccccc5nc4OC)[nH]3)c2c1` [(S)-2-(6-methoxy-2-(trifluoromethyl)-1H-benzo[d]imidazol-1-yl)-1-(2-(5-(2-methoxyquinolin-3-yl)-1H-imidazol-2-yl)-4-(2-(pyridin-2-yl)ethyl)piperazin-1-yl)ethan-1-one] the figure was less than 0.1 µM.

The values above are taken from patent US10815222B2, “Compounds for use in the treatment of kinetoplastid infection” (C.N.C.C.S. S.c.a.r.l. COLLEZIONE NAZIONALE DEI COMPOSTI …, priority 2016, dated 2020).
